Results: US6448280B1, “Angiotensin II antagonists against disorders associated with impaired neuronal conduction velocity, especially diabetic neuropathy” (Zeneca Limited, priority 1992, dated 2002)

How the values were obtained:
Type in all cases: in vivo
[1] = system: motor branches supplying the gastrocnemius muscle (sciatic nerve); test: Motor nerve conduction velocity in streptozotocin-diabetic rats, sciatic branch to gastrocnemius; conditions: streptozotocin-diabetic male rats; 50 mg/kg daily by gavage for one month, started after one month of diabetes; sciatic notch to knee
Description: (§1) Using an analogous method to that described by Cameron et al in Quarterlty Journal of Experimental Physiology, 1989, 74, 917-926, mature male rats were divided into non-diabetic animals (normal control group) and animals rendered diabetic (by administration of streptozotocin (40-45 mg/kg in 20 mmol/l sodium citrate buffer, pH 4.5, i.p.). The diabetic animals were further divided into two groups. After one month, the motor nerve conduction velocities in one of the diabetic groups (diabetic control group 1) were measured in vivo between the sciatic notch and the knee for motor branches supplying the gastrocnemius and tibialis anterior muscles of the calf using the procedures described by Cameron et al (ibid) (further details of the procedures are given in Experimental Neurology, 1986, 92, 757-761). Sensory nerve conduction velocity was also measured for diabetic control group 1 in the saphenous nerve between the groin and ankle (again using the method of Cameron et al (ibid)). The remaining group of diabetic animals was further divided into two groups. One of these groups was given daily 2-ethyl-4-[(2′-(1H-1,2,3,4-tetrazol-5-yl)biphenyl-4-yl)methoxy]quinoline hydrochloride (Compound A; 50 mg/kg) by gavage, the other group remaining untreated (diabetic control group 2). […]

[2] = system: motor branches supplying the tibialis anterior muscle (sciatic nerve); test: Motor nerve conduction velocity in streptozotocin-diabetic rats, sciatic branch to tibialis anterior; conditions: streptozotocin-diabetic male rats; 50 mg/kg daily by gavage for one month, started after one month of diabetes; sciatic notch to knee
Description: as §1

saphenous nerve = test: Sensory nerve conduction velocity in streptozotocin-diabetic rats, saphenous nerve; conditions: streptozotocin-diabetic male rats; 50 mg/kg daily by gavage for one month, started after one month of diabetes; groin to ankle
Description: as §1

CCc1cc(OCc2ccc(-c3ccccc3-c3nnn[nH]3)cc2)c2ccccc2n1.Cl [Compound A, 2-ethyl-4-[(2′-(1H-1,2,3,4-tetrazol-5-yl)biphenyl-4-yl)methoxy]quinoline hydrochloride]
Motor NCV Gastrocnemius [1]: 62.8 ± 0.9 m/s | Motor NCV Tibialis Anterior [2]: 60.3 ± 1.2 m/s | Sensory NCV Saphenous (saphenous nerve): 60.2 ± 1.1 m/s
